Assay results: patent US8637681B2, “Pyrrolyl substituted dihydroindol-2-one derivatives, preparation methods and uses thereof” (Qilu Pharmaceutical Co., Ltd., priority 2010, dated 2014)

Columns and labels:
[1] = tested on: human colon cancer HT 29 transplanted tumor; test: Nude mice transplanted tumor test; type: in vivo, female Balb/cA nude mice; parameters: key to d21 Vave ± SD (average tumor volume): tumor volume TV = ½×a×b² (a, b = major, minor diameter), in mm³; conditions: for Dead animal number / inhibition in vivo at 80 mg/kg / d21 Wave ± SD (average bodyweight of nude mice) / d21 Vave ± SD (average tumor volume) / d21 RTV ± SD (relative tumor volume): 80 mg/kg intragastrically each day for 20 days; for Dead animal number: dead/total animals; for inhibition in vivo at 80 mg/kg: Mus musculus, HT-29, po, 504 h, (1−T/C)×100%, read-out: Tumor inhibition rate d21 (%); for inhibition in vivo at 80 mg/kg / d21 Wave ± SD (average bodyweight of nude mice) / d21 Vave ± SD (average tumor volume) / d21 RTV ± SD (relative tumor volume): d21; for d0 Wave ± SD (average bodyweight of nude mice): d0, at grouping before administration (baseline); for d21 Vave ± SD (average tumor volume): HT 29 in nude mice; for d21 RTV ± SD (relative tumor volume): RTV=Vt/V0
Method in brief: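 Female Balb/cA nude mice bearing HT 29 colon tumour fragments in the right axilla, grouped at about 120 mm^3, received 80 mg/kg intragastrically daily for 20 days; vehicle was water with 0.1% Tween 80. Tumour volume (½×a×b^2) measured 2-3 times weekly, expressed as relative tumour volume Vt/V0.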

[2] = Cytotoxicity test (SRB), Hela; type: cell-based; conditions: human, Hela cervical cancer cells
Method in brief: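 A549, Hela and A431 cells seeded at 4000/well, adhered overnight, then exposed to compound dilutions (final DMSO 0.25%) for 72 h at 37° C., 5% CO2. SRB read-out: absorbance at 540 nm; IC50 (μM) calculated by Logit method.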

[3] = tested on: arterial ring angiogenesis in rats; test: Inhibitory actions on arterial ring angiogenesis in rats; type: cell-based; conditions: Rattus norvegicus, area covered by micrangiums vs control well, read-out: Inhibitory rate (%); for inhibition at 0.2 µg/mL: 0.2 μg/ml; for inhibition at 1 µg/mL: 1 μg/ml; for inhibition at 5 µg/mL: 5 μg/ml
Method in brief: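 Rat thoracic aorta cut into 1 mm rings, embedded in Matrigel and cultured at 37 °C with compound; medium and drug renewed every 3 days. Microvessel sprouting area imaged by microscopy; inhibition (%) = (control area − drug area)/control area × 100.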

[4] = tested on: three kinds of tumor cells (A549, Hela, A431); test: Cytotoxicity test, summary over the three tumor cell lines; type: cell-based, human; conditions: compared with positive control Sunitinib
Protocol: Cytotoxicity of the compounds of the present invention was tested with human non-small cell lung cancer cells A549, human cervical cancer Hela cells, human skin cancer cells A431. The test was performed by referring to the method described by Rusnak et al (Rusnak D. W., et al., Cell Prolif., 2007, 40, 580-94).
In Dulbecco's Modified Eagle Medium (DMEM) comprising 10% fetal bovine serum, 2 mM glutamine and non-essential amino acids, cells were cultured at 37° C. in 5% CO2 cell incubator. Trypsin/ethylenediamine tetraacetic acid (EDTA) were used to harvest cells in cell culture bottle. The cells were added to a 96-well cell culture plate, 4000/well (0.1 ml medium), adhering wall overnight, 0.1 ml of the diluted solution of the compounds to be tested was added, the final concentration of DMSO was 0.25%. The cell culture plate was incubated at 37° C., 5% CO2 conditions for 72 h. The change of cellular morphology was observed under microscope, and then 50 μl of 50% (mass/volume) trichloroacetic acid (TCA) was added to each well to fix cells. The final concentration of TCA was 10%. It stood for 5 min, than was placed in 4° C. refrigerator for 1 h, the wells of the culture plate were washed with deionized water for 5 times to remove TCA, drained, dried in air until no wet trace was observed. 100 μl of 0.4% (mass/volume) SRB was added to each well, stood at room temperature for 10 min. The liquid in each well was discarded, and then the wells were washed with 1% acetic acid for 5 times, dried in air, extracted with 150 μl of 10 mM Tris base (trihydroxymethylaminomethane, pH 10.5). The absorption at a wavelength of 540 nm was measured. The IC50 (μM) of the compound was calculated using Logit method.

[5] = Cytotoxicity test (SRB), A549; type: cell-based; conditions: human, A549 non-small cell lung cancer cells
Method in brief: (§1)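 Cells seeded at 4000/well in DMEM with 10% FBS, adhered overnight, then treated 72 h at 37° C, 5% CO2 with compound (final DMSO 0.25%). TCA-fixed and stained with SRB, A540 read. IC50 (μM) calculated by Logit method.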

[6] = Cytotoxicity test (SRB), A431; type: cell-based; conditions: human, A431 skin cancer cells
Method in brief: as §1

| SMILES | Dead animal number [1] | inhibition in vivo at 80 mg/kg [1] [%] | d0 Wave ± SD (average bodyweight of nude mice) [1] | d21 Wave ± SD (average bodyweight of nude mice) [1] | d21 Vave ± SD (average tumor volume) ([1]; in mm³ (unit assumed)) | d21 RTV ± SD (relative tumor volume) [1] | IC50 at 72 h [2] [µM] | inhibition at 0.2 µg/mL [3] [%] | inhibition at 1 µg/mL [3] [%] | inhibition at 5 µg/mL [3] [%] | Cytotoxicity to tumor cells (in words) [4] | IC50 at 72 h [5] [µM] | IC50 at 72 h [6] [µM] | d21 Vave ± SD (average tumor volume) [1] | Activity of inhibiting HT-29 transplanted tumor in vivo (in words) ([1]; 80 mg/kg, compared with positive control Sunitinib) |
| --- | --- | --- | --- | --- | --- | --- | --- | --- | --- | --- | --- | --- | --- | --- | --- |
| Cc1[nH]c(/C=C2\C(=O)Nc3ccc(F)cc32)c(C)c1NC(=O)CCN(C)C [Compound 6, N-{5-[5-fluoro-2-oxo-1,2-dihydro-indol-(3Z)-ylidenemethyl]-2,4-dimethyl-1H-pyrrol-3-yl}-3-(N,N-dimethylamino)propionamide] | 0/6 | 84.7 | 18.7 ± 0.38 | 20.4 ± 0.49 | 130.7 ± 37.4 | 1.10 ± 0.38 | 8.08 | 92 | 100 | 100 | certain toxicity to some cells | > 30 | > 30 | – | – |
| CCN(CC)CCS(=O)(=O)Nc1c(C)[nH]c(/C=C2\C(=O)Nc3ccc(F)cc32)c1C [Compound 9, N-{5-[5-fluoro-2-oxo-1,2-dihydro-indol-(3Z)-ylidenemethyl]-2,4-dimethyl-1H-pyrrol-3-yl}-2-(N,N-diethylamino)ethylsulfonamide] | 0/6 | 63 | 19.6 ± 0.25 | 21.4 ± 0.38 | – | 2.66 ± 0.69 | > 30 | 93 | 100 | 100 | certain toxicity to some cells | > 30 | 8.58 | 328.3 ± 45.4 | – |
| Cc1[nH]c(/C=C2\C(=O)Nc3ccc(F)cc32)c(C)c1NC(=O)CCN1CCCCC1 [Compound 13, N-{5-[5-fluoro-2-oxo-1,2-dihydro-indol-(3Z)-ylidenemethyl]-2,4-dimethyl-1H-pyrrol-3-yl}-3-(piperidin-1-yl)propionamide] | 0/6 | 71.1 | 19.1 ± 0.85 | 20.1 ± 0.88 | 253.8 ± 56.4 | 2.08 ± 0.59 | > 30 | 93 | 100 | 100 | certain toxicity to some cells | > 30 | 8.69 | – | – |
| CCN(CC)CC(=O)Nc1c(C)[nH]c(/C=C2\C(=O)Nc3ccc(F)cc32)c1C [Compound 20, N-{5-[5-fluoro-2-oxo-1,2-dihydro-indol-(3Z)-ylidenemethyl]-2,4-dimethyl-1H-pyrrol-3-yl}-2-(N,N-diethylamino)acetamide] | 0/6 | 89.4 | 19.6 ± 0.69 | 20.3 ± 0.63 | 93.5 ± 42.8 | 0.76 ± 0.32 | 5.21 | 98 | 100 | 100 | certain toxicity to some cells | > 30 | > 30 | – | inhibitory activity comparable to the positive control Sunitinib |
| Cc1[nH]c(/C=C2\C(=O)Nc3ccc(F)cc32)c(C)c1NC(=O)CCN1CCOCC1 [Compound 12, N-{5-[5-fluoro-2-oxo-1,2-dihydro-indol-(3Z)-ylidenemethyl]-2,4-dimethyl-1H-pyrrol-3-yl}-3-(morpholin-4-yl)propionamide] | 0/6 | 79.8 | 17.2 ± 0.54 | 19.1 ± 0.57 | 197.9 ± 48.1 | 1.45 ± 0.37 | 4.75 | 94 | 100 | 100 | certain toxicity to some cells | > 30 | 7.59 | – | – |
| CCN(CC)CCC(=O)Nc1c(C)[nH]c(/C=C2\C(=O)Nc3ccc(Br)cc32)c1C [Compound 3, N-{5-[5-bromo-2-oxo-1,2-dihydro-indol-(3Z)-ylidenemethyl]-2,4-dimethyl-1H-pyrrol-3-yl}-3-(N,N-diethylamino)propionamide] | 0/6 | 86.4 | 19.3 ± 0.41 | 17.3 ± 0.56 | 120.6 ± 40.2 | 0.98 ± 0.36 | 5.08 | 93 | 100 | 100 | certain toxicity to some cells | > 30 | > 30 | – | – |
| C=CC(=O)Nc1c(C)[nH]c(/C=C2\C(=O)Nc3ccc(F)cc32)c1C [Compound 7, N-{5-[5-fluoro-2-oxo-1,2-dihydro-indol-(3Z)-ylidenemethyl]-2,4-dimethyl-1H-pyrrol-3-yl}-acrylamide] | 0/6 | 59.8 | 19.4 ± 0.41 | 20.9 ± 0.38 | – | 2.89 ± 1.05 | 6.78 | 95 | 100 | 100 | certain toxicity to some cells | > 30 | > 30 | 359.8 ± 45.4 | – |
